Test: xn = mol fraction of the nth substance listed

CC(C)=O [acetone] + O=C=O
Details	mass density [kg/m3]
318.15 K, 8180 kPa, Fluid (supercritical or subcritical phases), x2 = 0.902	715
318.15 K, 8410 kPa, Fluid (supercritical or subcritical phases), x2 = 0.902	722
318.15 K, 8570 kPa, Fluid (supercritical or subcritical phases), x2 = 0.902	726
318.15 K, 8810 kPa, Fluid (supercritical or subcritical phases), x2 = 0.902	732
318.15 K, 8960 kPa, Fluid (supercritical or subcritical phases), x2 = 0.902	735
318.15 K, 9180 kPa, Fluid (supercritical or subcritical phases), x2 = 0.902	738
318.15 K, 9410 kPa, Fluid (supercritical or subcritical phases), x2 = 0.902	744
318.15 K, 9570 kPa, Fluid (supercritical or subcritical phases), x2 = 0.902	746
318.15 K, 9780 kPa, Fluid (supercritical or subcritical phases), x2 = 0.902	751
318.15 K, 9900 kPa, Fluid (supercritical or subcritical phases), x2 = 0.902	754
318.15 K, 10070 kPa, Fluid (supercritical or subcritical phases), x2 = 0.902	756
318.15 K, 10330 kPa, Fluid (supercritical or subcritical phases), x2 = 0.902	757
318.15 K, 10540 kPa, Fluid (supercritical or subcritical phases), x2 = 0.902	763
318.15 K, 10770 kPa, Fluid (supercritical or subcritical phases), x2 = 0.902	766
318.15 K, 10970 kPa, Fluid (supercritical or subcritical phases), x2 = 0.902	770
318.15 K, 11190 kPa, Fluid (supercritical or subcritical phases), x2 = 0.902	774
318.15 K, 11500 kPa, Fluid (supercritical or subcritical phases), x2 = 0.902	776
318.15 K, 11830 kPa, Fluid (supercritical or subcritical phases), x2 = 0.902	781
318.15 K, 12140 kPa, Fluid (supercritical or subcritical phases), x2 = 0.902	785
318.15 K, 12450 kPa, Fluid (supercritical or subcritical phases), x2 = 0.902	789
318.15 K, 12710 kPa, Fluid (supercritical or subcritical phases), x2 = 0.902	793
318.15 K, 13050 kPa, Fluid (supercritical or subcritical phases), x2 = 0.902	795
318.15 K, 13370 kPa, Fluid (supercritical or subcritical phases), x2 = 0.902	798
318.15 K, 13700 kPa, Fluid (supercritical or subcritical phases), x2 = 0.902	803
318.15 K, 14060 kPa, Fluid (supercritical or subcritical phases), x2 = 0.902	807
318.15 K, 14370 kPa, Fluid (supercritical or subcritical phases), x2 = 0.902	809
318.15 K, 14610 kPa, Fluid (supercritical or subcritical phases), x2 = 0.902	812
318.15 K, 14870 kPa, Fluid (supercritical or subcritical phases), x2 = 0.902	815
318.15 K, Liquid, Other PVT measurement, x2 = 0.902	709
323.15 K, 1690 kPa, Fluid (supercritical or subcritical phases), x2 = 0.186	764
323.15 K, 2050 kPa, Fluid (supercritical or subcritical phases), x2 = 0.186	767
323.15 K, 2920 kPa, Fluid (supercritical or subcritical phases), x2 = 0.186	770
323.15 K, 4190 kPa, Fluid (supercritical or subcritical phases), x2 = 0.383	789
323.15 K, 4500 kPa, Fluid (supercritical or subcritical phases), x2 = 0.186	772
323.15 K, 5090 kPa, Fluid (supercritical or subcritical phases), x2 = 0.576	798
323.15 K, 5870 kPa, Fluid (supercritical or subcritical phases), x2 = 0.383	795
323.15 K, 6050 kPa, Fluid (supercritical or subcritical phases), x2 = 0.186	775
323.15 K, 6120 kPa, Fluid (supercritical or subcritical phases), x2 = 0.576	802
323.15 K, 7330 kPa, Fluid (supercritical or subcritical phases), x2 = 0.186	777
323.15 K, 7430 kPa, Fluid (supercritical or subcritical phases), x2 = 0.576	810
323.15 K, 7470 kPa, Fluid (supercritical or subcritical phases), x2 = 0.772	783
323.15 K, 7570 kPa, Fluid (supercritical or subcritical phases), x2 = 0.811	760
323.15 K, 7780 kPa, Fluid (supercritical or subcritical phases), x2 = 0.811	764
323.15 K, 7880 kPa, Fluid (supercritical or subcritical phases), x2 = 0.383	800
323.15 K, 7930 kPa, Fluid (supercritical or subcritical phases), x2 = 0.772	787
323.15 K, 7930 kPa, Fluid (supercritical or subcritical phases), x2 = 0.811	769
323.15 K, 8250 kPa, Fluid (supercritical or subcritical phases), x2 = 0.882	703
323.15 K, 8280 kPa, Fluid (supercritical or subcritical phases), x2 = 0.811	774
323.15 K, 8420 kPa, Fluid (supercritical or subcritical phases), x2 = 0.772	792
323.15 K, 8500 kPa, Fluid (supercritical or subcritical phases), x2 = 0.882	712
323.15 K, 8620 kPa, Fluid (supercritical or subcritical phases), x2 = 0.811	778
323.15 K, 8630 kPa, Fluid (supercritical or subcritical phases), x2 = 0.882	716
323.15 K, 8710 kPa, Fluid (supercritical or subcritical phases), x2 = 0.186	781
323.15 K, 8750 kPa, Fluid (supercritical or subcritical phases), x2 = 0.902	678
323.15 K, 8790 kPa, Fluid (supercritical or subcritical phases), x2 = 0.882	719
323.15 K, 8860 kPa, Fluid (supercritical or subcritical phases), x2 = 0.933	586
323.15 K, 8880 kPa, Fluid (supercritical or subcritical phases), x2 = 0.933	590
323.15 K, 8920 kPa, Fluid (supercritical or subcritical phases), x2 = 0.902	683
323.15 K, 8930 kPa, Fluid (supercritical or subcritical phases), x2 = 0.882	721
323.15 K, 8930 kPa, Fluid (supercritical or subcritical phases), x2 = 0.933	594
323.15 K, 8960 kPa, Fluid (supercritical or subcritical phases), x2 = 0.576	813
323.15 K, 8970 kPa, Fluid (supercritical or subcritical phases), x2 = 0.772	796
323.15 K, 8980 kPa, Fluid (supercritical or subcritical phases), x2 = 0.952	495
323.15 K, 8990 kPa, Fluid (supercritical or subcritical phases), x2 = 0.933	601
323.15 K, 9000 kPa, Fluid (supercritical or subcritical phases), x2 = 0.948	540
323.15 K, 9000 kPa, Fluid (supercritical or subcritical phases), x2 = 0.952	497
323.15 K, 9020 kPa, Fluid (supercritical or subcritical phases), x2 = 0.902	687
323.15 K, 9030 kPa, Fluid (supercritical or subcritical phases), x2 = 0.952	502
323.15 K, 9040 kPa, Fluid (supercritical or subcritical phases), x2 = 0.933	606
323.15 K, 9060 kPa, Fluid (supercritical or subcritical phases), x2 = 0.948	549
323.15 K, 9060 kPa, Fluid (supercritical or subcritical phases), x2 = 0.952	505
323.15 K, 9090 kPa, Fluid (supercritical or subcritical phases), x2 = 0.952	510
323.15 K, 9100 kPa, Fluid (supercritical or subcritical phases), x2 = 0.933	613
323.15 K, 9110 kPa, Fluid (supercritical or subcritical phases), x2 = 0.882	728
323.15 K, 9120 kPa, Fluid (supercritical or subcritical phases), x2 = 0.948	559
323.15 K, 9120 kPa, Fluid (supercritical or subcritical phases), x2 = 0.952	514
323.15 K, 9140 kPa, Fluid (supercritical or subcritical phases), x2 = 0.952	519
323.15 K, 9160 kPa, Fluid (supercritical or subcritical phases), x2 = 0.902	690
323.15 K, 9170 kPa, Fluid (supercritical or subcritical phases), x2 = 0.952	523
323.15 K, 9180 kPa, Fluid (supercritical or subcritical phases), x2 = 0.933	618
323.15 K, 9190 kPa, Fluid (supercritical or subcritical phases), x2 = 0.952	527
323.15 K, 9200 kPa, Fluid (supercritical or subcritical phases), x2 = 0.948	568
323.15 K, 9220 kPa, Fluid (supercritical or subcritical phases), x2 = 0.952	531
323.15 K, 9240 kPa, Fluid (supercritical or subcritical phases), x2 = 0.933	624
323.15 K, 9250 kPa, Fluid (supercritical or subcritical phases), x2 = 0.952	537
323.15 K, 9270 kPa, Fluid (supercritical or subcritical phases), x2 = 0.902	694
323.15 K, 9290 kPa, Fluid (supercritical or subcritical phases), x2 = 0.952	541
323.15 K, 9300 kPa, Fluid (supercritical or subcritical phases), x2 = 0.948	579
323.15 K, 9320 kPa, Fluid (supercritical or subcritical phases), x2 = 0.952	546
323.15 K, 9330 kPa, Fluid (supercritical or subcritical phases), x2 = 0.933	630
323.15 K, 9350 kPa, Fluid (supercritical or subcritical phases), x2 = 0.811	787
323.15 K, 9350 kPa, Fluid (supercritical or subcritical phases), x2 = 0.952	550
323.15 K, 9380 kPa, Fluid (supercritical or subcritical phases), x2 = 0.882	732
323.15 K, 9380 kPa, Fluid (supercritical or subcritical phases), x2 = 0.952	556
323.15 K, 9400 kPa, Fluid (supercritical or subcritical phases), x2 = 0.902	699
323.15 K, 9410 kPa, Fluid (supercritical or subcritical phases), x2 = 0.933	637
323.15 K, 9410 kPa, Fluid (supercritical or subcritical phases), x2 = 0.948	590
323.15 K, 9430 kPa, Fluid (supercritical or subcritical phases), x2 = 0.952	561
323.15 K, 9450 kPa, Fluid (supercritical or subcritical phases), x2 = 0.772	798
323.15 K, 9480 kPa, Fluid (supercritical or subcritical phases), x2 = 0.952	567
323.15 K, 9520 kPa, Fluid (supercritical or subcritical phases), x2 = 0.902	702
323.15 K, 9520 kPa, Fluid (supercritical or subcritical phases), x2 = 0.933	642
323.15 K, 9520 kPa, Fluid (supercritical or subcritical phases), x2 = 0.952	571
323.15 K, 9540 kPa, Fluid (supercritical or subcritical phases), x2 = 0.948	602
323.15 K, 9560 kPa, Fluid (supercritical or subcritical phases), x2 = 0.383	803
323.15 K, 9560 kPa, Fluid (supercritical or subcritical phases), x2 = 0.952	578
323.15 K, 9620 kPa, Fluid (supercritical or subcritical phases), x2 = 0.952	582
323.15 K, 9630 kPa, Fluid (supercritical or subcritical phases), x2 = 0.933	649
323.15 K, 9650 kPa, Fluid (supercritical or subcritical phases), x2 = 0.882	736
323.15 K, 9660 kPa, Fluid (supercritical or subcritical phases), x2 = 0.948	613

— the NIST ThermoML archive (doi:10.1021/je034087q)
